This note sets out measurements from patent publication US10730858B2, “Lactam, cyclic urea and carbamate, and triazolone derivatives as potent and selective rock inhibitors” (BRISTOL-MYERS SQUIBB COMPANY, priority 2016, dated 2020).

pIC50: −log10 of the molar value.

The target in this test is ROCK2 (Homo sapiens, UniProt O75116). As to the kind of experiment: ROCK2 assay (Caliper LABCHIP peptide phosphorylation, kinase inhibition). The following applies: 5 μM ATP, 1.5 μM peptide substrate. Type of test: biochemical. As to the method:
The effectiveness of compounds of the present invention as ROCK inhibitors can be determined in a 30 μL assay containing 20 mM HEPES, pH 7.5, 20 mM MgCl2, 0.015% Brij-35, 4 mM DTT, 5 μM ATP and 1.5 μM peptide substrate (FITC-AHA-AKRRRLSSLRA-OH) (SEQ ID NO. 1). Compounds were dissolved in DMSO so that the final concentration of DMSO was <2%, and the reaction was initiated with Rho kinase variants. After incubation, the reaction was terminated by the addition of EDTA and the phosphorylated and non-phosphorylated peptides separated using a LABCHIP® 3000 Reader (Caliper Life Sciences). […] Compounds were tested in dose-response format, and the inhibition of kinase activity was calculated at each concentration of compound. The inhibition data were fit using a curve-fitting program to determine the IC50; i.e., the concentration of compound required to inhibit 50% of kinase activity.
Representative Examples were tested in the ROCK2 assay described above and found having ROCK2 inhibitory activity. The ranges of the ROCK2 IC50 values are as follows: ROCK2 IC50: ++++ (<10 nM) +++ (10-100 nM) ++ (100-500 nM) + (500-2000 nM)

Sequence of ROCK2 (O75116 whole entry, species assumed): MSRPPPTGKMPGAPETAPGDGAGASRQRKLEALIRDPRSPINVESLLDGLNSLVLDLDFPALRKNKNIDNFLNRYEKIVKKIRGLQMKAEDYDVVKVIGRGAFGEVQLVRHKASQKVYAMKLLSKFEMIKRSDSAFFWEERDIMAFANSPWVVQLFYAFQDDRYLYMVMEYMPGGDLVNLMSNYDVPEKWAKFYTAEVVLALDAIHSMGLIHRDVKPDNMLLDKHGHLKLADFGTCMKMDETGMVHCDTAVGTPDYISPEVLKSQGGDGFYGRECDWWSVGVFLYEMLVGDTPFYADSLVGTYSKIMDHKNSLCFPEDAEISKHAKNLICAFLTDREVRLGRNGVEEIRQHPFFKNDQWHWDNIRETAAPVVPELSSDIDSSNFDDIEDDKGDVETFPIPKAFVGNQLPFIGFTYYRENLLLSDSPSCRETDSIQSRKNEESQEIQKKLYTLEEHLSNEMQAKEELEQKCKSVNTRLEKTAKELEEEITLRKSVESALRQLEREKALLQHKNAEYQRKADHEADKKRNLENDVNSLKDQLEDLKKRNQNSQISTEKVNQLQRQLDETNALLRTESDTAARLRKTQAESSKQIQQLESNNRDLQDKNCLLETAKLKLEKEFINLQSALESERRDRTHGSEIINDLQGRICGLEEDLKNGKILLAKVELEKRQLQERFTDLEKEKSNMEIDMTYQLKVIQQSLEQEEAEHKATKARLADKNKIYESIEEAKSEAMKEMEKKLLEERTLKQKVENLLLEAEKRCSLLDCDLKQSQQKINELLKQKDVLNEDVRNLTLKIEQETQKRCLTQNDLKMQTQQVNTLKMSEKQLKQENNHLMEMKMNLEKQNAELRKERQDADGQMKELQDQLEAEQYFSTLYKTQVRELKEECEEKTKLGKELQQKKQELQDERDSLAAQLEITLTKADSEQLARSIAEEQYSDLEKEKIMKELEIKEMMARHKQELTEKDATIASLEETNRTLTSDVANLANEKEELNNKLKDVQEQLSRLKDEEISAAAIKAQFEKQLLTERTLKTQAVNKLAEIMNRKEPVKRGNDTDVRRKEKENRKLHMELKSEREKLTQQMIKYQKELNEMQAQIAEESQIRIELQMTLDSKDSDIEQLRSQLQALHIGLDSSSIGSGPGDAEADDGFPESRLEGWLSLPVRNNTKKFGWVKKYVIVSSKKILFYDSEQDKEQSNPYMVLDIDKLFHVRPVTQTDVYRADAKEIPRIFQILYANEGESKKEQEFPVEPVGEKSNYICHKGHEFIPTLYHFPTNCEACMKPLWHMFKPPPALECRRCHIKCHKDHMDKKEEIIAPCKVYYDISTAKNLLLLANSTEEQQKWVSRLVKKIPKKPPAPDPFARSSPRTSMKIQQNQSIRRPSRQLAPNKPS

As to `O=C1C(NC2Cc3ccccc3C2)CCN1c1ccc(-c2n[nH]c(=O)c3ccccc23)cc1` (stereo not shown) [Example 29, 4-(4-{3-[(2,3-dihydro-1H-inden-2-yl)amino]-2-oxopyrrolidin-1-yl}phenyl)-1,2-dihydrophthalazin-1-one], the pIC50 was 5.70 to 6.30.
`CCc1ccccc1NC1CCN(c2ccc(-c3n[nH]c(=O)c4ccccc34)cc2)C1=O` (stereo not shown) [Example 31, 4-(4-{3-[(2-ethylphenyl)amino]-2-oxopyrrolidin-1-yl}phenyl)-1,2-dihydrophthalazin-1-one] gave a pIC50 of 7.00 to 8.00.
`COc1cc(F)cc(NC2CCN(c3ccc(-c4n[nH]c(=O)c5ccccc45)cc3)C2=O)c1` (stereo not shown) [Example 32, 4-(4-{3-[(3-fluoro-5-methoxyphenyl)amino]-2-oxopyrrolidin-1-yl}phenyl)-1,2-dihydrophthalazin-1-one] showed a pIC50 of 7.00 to 8.00.
Molecule `O=C1C(Nc2ccc3c(c2)OCO3)CCN1c1ccc(-c2n[nH]c(=O)c3ccccc23)cc1` (stereo not shown) [Example 33, 4-(4-{3-[(2H-1,3-benzodioxol-5-yl)amino]-2-oxopyrrolidin-1-yl}phenyl)-1,2-dihydrophthalazin-1-one] gave a pIC50 of 7.00 to 8.00.
`O=C1C(Nc2ccc3c(c2)OCCCO3)CCN1c1ccc(-c2n[nH]c(=O)c3ccccc23)cc1` (stereo not shown) [Example 34, 4-(4-{3-[(3,4-dihydro-2H-1,5-benzodioxepin-7-yl)amino]-2-oxopyrrolidin-1-yl}phenyl)-1,2-dihydrophthalazin-1-one]: the pIC50 was 7.00 to 8.00.
Consider `Cn1nc(C2CC2)cc1NC1CCN(c2ccc(-c3n[nH]c(=O)c4ccccc34)cc2)C1=O` (stereo not shown) [Example 35, 4-(4-{3-[(3-cyclopropyl-1-methyl-1H-pyrazol-5-yl)amino]-2-oxopyrrolidin-1-yl}phenyl)-1,2-dihydrophthalazin-1-one], for which the pIC50 is 7.00 to 8.00.
Consider `Cc1[nH]nc(C2CC2)c1NC1CCN(c2ccc(-c3n[nH]c(=O)c4ccccc34)cc2)C1=O` (stereo not shown) [Example 36, 4-(4-{3-[(3-cyclopropyl-5-methyl-1H-pyrazol-4-yl)amino]-2-oxopyrrolidin-1-yl}phenyl)-1,2-dihydrophthalazin-1-one], for which the pIC50 is 7.00 to 8.00.
Take `COc1ccc(F)c(NC2CCN(c3ccc(-c4n[nH]c(=O)c5ccccc45)cc3)C2=O)c1` (stereo not shown) [Example 37, 4-(4-{3-[(2-fluoro-5-methoxyphenyl)amino]-2-oxopyrrolidin-1-yl}phenyl)-1,2-dihydrophthalazin-1-one]: the pIC50 is 7.00 to 8.00.
As for `COc1cc(C)cc(NC2CCN(c3ccc(-c4n[nH]c(=O)c5ccccc45)cc3)C2=O)c1` (stereo not shown) [Example 38, 4-(4-{3-[(3-methoxy-5-methylphenyl)amino]-2-oxopyrrolidin-1-yl}phenyl)-1,2-dihydrophthalazin-1-one], the pIC50 is 7.00 to 8.00.
For `O=C1C(Nc2cnn(-c3ccccc3)c2)CCN1c1ccc(-c2n[nH]c(=O)c3ccccc23)cc1` (stereo not shown) [Example 39, 4-(4-{2-oxo-3-[(1-phenyl-1H-pyrazol-4-yl)amino]pyrrolidin-1-yl}phenyl)-1,2-dihydrophthalazin-1-one], the negative logarithm of the IC50 (pIC50) was 7.00 to 8.00.
On to `COc1c(F)ccc(NC2CCN(c3ccc(-c4n[nH]c(=O)c5ccccc45)cc3)C2=O)c1F` (stereo not shown) [Example 40, 4-(4-{3-[(2,4-difluoro-3-methoxyphenyl)amino]-2-oxopyrrolidin-1-yl}phenyl)-1,2-dihydrophthalazin-1-one], for which the pIC50 was 7.00 to 8.00.
Molecule `O=c1[nH]nc(-c2ccc(-n3ncn(Cc4ccccc4)c3=O)cc2)c2ccccc12` [Example 41, 4-[4-(4-benzyl-5-oxo-4,5-dihydro-1H-1,2,4-triazol-1-yl)phenyl]-1,2-dihydrophthalazin-1-one] showed a pIC50 of 6.30 to 7.00.
`COc1cc(NC2CCN(c3ccc(-c4n[nH]c(=O)c5ccccc45)cc3)C2=O)ccc1F` (stereo not shown) [Example 42, 4-(4-{3-[(4-fluoro-3-methoxyphenyl)amino]-2-oxopyrrolidin-1-yl}phenyl)-1,2-dihydrophthalazin-1-one] had a pIC50 of 7.00 to 8.00.
For the molecule `CCOc1cccc(NC2CCN(c3ccc(-c4n[nH]c(=O)c5ccccc45)cc3)C2=O)c1` (stereo not shown) [Example 43, 4-(4-{3-[(3-ethoxyphenyl)amino]-2-oxopyrrolidin-1-yl}phenyl)-1,2-dihydrophthalazin-1-one], the pIC50 is 7.00 to 8.00.
In turn, `COc1cccc([C@@H](C)NC2CCN(c3ccc(-c4n[nH]c(=O)c5ccccc45)cc3)C2=O)c1` (stereo partly drawn) [Example 44, 4-[4-(3-{[(1R)-1-(3-methoxyphenyl)ethyl]amino}-2-oxopyrrolidin-1-yl)phenyl]-1,2-dihydrophthalazin-1-one] had a pIC50 of 5.70 to 6.30.
Turning to `O=C1C(NCCc2ccccc2)CCN1c1ccc(-c2n[nH]c(=O)c3ccccc23)cc1` (stereo not shown) [Example 45, 4-(4-{2-oxo-3-[(2-phenylethyl)amino]pyrrolidin-1-yl}phenyl)-1,2-dihydrophthalazin-1-one], the pIC50 is 5.70 to 6.30.
`COc1cccc(Cn2cnn(-c3ccc(-c4n[nH]c(=O)c5ccccc45)cc3)c2=O)c1` [Example 46, 4-(4-{4-[(3-methoxyphenyl)methyl]-5-oxo-4,5-dihydro-1H-1,2,4-triazol-1-yl}phenyl)-1,2-dihydrophthalazin-1-one] gave a negative logarithm of the IC50 (pIC50) of 6.30 to 7.00.
In turn, `O=c1n(Cc2ccccc2)cnn1-c1ccc(-c2n[nH]c(=O)n3cccc23)cc1` [Example 47, 4-benzyl-1-(4-{4-oxo-3H,4H-pyrrolo[1,2-d][1,2,4]triazin-1-yl}phenyl)-4,5-dihydro-1H-1,2,4-triazol-5-one] gave a pIC50 of 5.70 to 6.30.
For `COc1cc(NC2CCN(c3ccc(-c4n[nH]c(=O)c5ccccc45)cc3)C2=O)ccc1N1CCN(C)CC1` (stereo not shown) [Example 48, 4-[4-(3-{[3-methoxy-4-(4-methylpiperazin-1-yl)phenyl]amino}-2-oxopyrrolidin-1-yl)phenyl]-1,2-dihydrophthalazin-1-one], the pIC50 is 7.00 to 8.00.
The value for `COc1cc(NC2CCN(c3ccc(-c4n[nH]c(=O)c5ccccc45)cc3)C2=O)ccc1N1CCOCC1` (stereo not shown) [Example 49, 4-[4-(3-{[3-methoxy-4-(morpholin-4-yl)phenyl]amino}-2-oxopyrrolidin-1-yl)phenyl]-1,2-dihydrophthalazin-1-one] was 7.00 to 8.00; that for `O=C1C(Nc2ccc3c(c2)OCCO3)CCN1c1ccc(-c2n[nH]c(=O)c3ccccc23)cc1` (stereo not shown) [Example 50, 4-(4-{3-[(2,3-dihydro-1,4-benzodioxin-6-yl)amino]-2-oxopyrrolidin-1-yl}phenyl)-1,2-dihydrophthalazin-1-one] was 7.00 to 8.00; that for `O=C1C(Nc2ccc3c(c2)OC(F)(F)O3)CCN1c1ccc(-c2n[nH]c(=O)c3ccccc23)cc1` (stereo not shown) [Example 51, 4-(4-{3-[(2,2-difluoro-2H-1,3-benzodioxol-5-yl)amino]-2-oxopyrrolidin-1-yl}phenyl)-1,2-dihydrophthalazin-1-one] was 7.00 to 8.00.
In the case of `O=C1C(Nc2cccc(OC(F)(F)F)c2)CCN1c1ccc(-c2n[nH]c(=O)c3ccccc23)cc1` (stereo not shown) [Example 52, 4-[4-(2-oxo-3-{[3-(trifluoromethoxy)phenyl]amino}pyrrolidin-1-yl)phenyl]-1,2-dihydrophthalazin-1-one], the pIC50 was greater than 8.00.
As for `O=c1[nH]nc(-c2ccc(-n3ncn(Cc4cccc(F)c4)c3=O)cc2)c2ccccc12` [Example 53, 4-(4-{4-[(3-fluorophenyl)methyl]-5-oxo-4,5-dihydro-1H-1,2,4-triazol-1-yl}phenyl)-1,2-dihydrophthalazin-1-one], the figure is 6.30 to 7.00; as for `CC(c1ccccc1)n1cnn(-c2ccc(-c3n[nH]c(=O)c4ccccc34)cc2)c1=O` (stereo not shown) [Example 54, 4-{4-[5-oxo-4-(1-phenylethyl)-4,5-dihydro-1H-1,2,4-triazol-1-yl]phenyl}-1,2-dihydrophthalazin-1-one], 5.70 to 6.30.
In turn, `CC(C)Oc1cccc(NC2CCN(c3ccc(-c4n[nH]c(=O)c5ccccc45)cc3)C2=O)c1` (stereo not shown) [Example 57, 4-[4-(2-oxo-3-{[3-(propan-2-yloxy)phenyl]amino}pyrrolidin-1-yl)phenyl]-1,2-dihydrophthalazin-1-one] showed a pIC50 of 7.00 to 8.00.
The value for `N#Cc1cnc(NC2CCN(c3ccc(-c4n[nH]c(=O)c5ccccc45)cc3)C2=O)s1` (stereo not shown) [Example 59, 2-({2-oxo-1-[4-(4-oxo-3,4-dihydrophthalazin-1-yl)phenyl]pyrrolidin-3-yl}amino)-1,3-thiazole-5-carbonitrile] was 6.30 to 7.00; that for `O=C1C(Nc2ccc(OC(F)F)cc2)CCN1c1ccc(-c2n[nH]c(=O)c3ccccc23)cc1` (stereo not shown) [Example 60, 4-[4-(3-{[4-(difluoromethoxy)phenyl]amino}-2-oxopyrrolidin-1-yl)phenyl]-1,2-dihydrophthalazin-1-one] was 7.00 to 8.00.
Consider `COc1ccccc1NC1CCN(c2ccc(-c3n[nH]c(=O)c4ccccc34)cc2)C1=O` (stereo not shown) [Example 61, 4-(4-{3-[(2-methoxyphenyl)amino]-2-oxopyrrolidin-1-yl}phenyl)-1,2-dihydrophthalazin-1-one], for which the pIC50 was 7.00 to 8.00.
`O=c1[nH]nc(-c2ccc(-n3ncn(Cc4cccc(OC(F)F)c4)c3=O)cc2)c2ccccc12` [Example 63, 4-[4-(4-{[3-(difluoromethoxy)phenyl]methyl}-5-oxo-4,5-dihydro-1H-1,2,4-triazol-1-yl)phenyl]-1,2-dihydrophthalazin-1-one] had a pIC50 of 6.30 to 7.00.
Consider `CC(C)n1ccc(NC2CCN(c3ccc(-c4n[nH]c(=O)c5ccccc45)cc3)C2=O)n1` (stereo not shown) [Example 64, 4-[4-(2-oxo-3-{[1-(propan-2-yl)-1H-pyrazol-3-yl]amino}pyrrolidin-1-yl)phenyl]-1,2-dihydrophthalazin-1-one], for which the negative logarithm of the IC50 (pIC50) is 7.00 to 8.00.
